Assay results: ChEMBL document CHEMBL6177933, “Discovery of Sophoridine α-Aryl Propionamide Derivative ZM600 as a Novel Antihepatic Fibrosis Agent” (J Med Chem, 2024)
Active and inactive are the calls of the source. The calls are words filed in the database; no cut-off is given here.

Tests used:
Mus musculus [1] = assay: Antifibrotic activity against CCL4-induced C57BL/6J mouse hepatic fibrosis model assessed as reduction in alphaSMA expression in liver at 15 to 30 mg/kg, po administered via gavage for 4 weeks starting from 5th week of CCL4 stimulation by qRT-PCR analysis; format: functional, organism-based; settings: dose 15-30 mg/kg
[2] = Cytotoxicity against human LX-2 cells assessed as reduction in cell viability measured after 48 hrs by CCK-8 assay; format: toxicity, cell-based
LX-2 [3] = assay: Inhibition of TGFbeta1-induced ERK1/2 phosphorylation in human LX-2 cells at 5 to 20 uM preincubated for 2 hrs followed by […] stimulation and measured after 2 hrs by Western blot analysis; format: cell-based; settings: dose 5-20 µM, time 4.0 hrs
LX-2 [4] = assay: Inhibition of FBS-induced cell migration in human LX-2 cells assessed as reduction in number of migrated cells measured after 24 hrs by crystal violet staining based transwell assay; format: functional; settings: dose 5-20 µM
[5] = biological target: Nuclear factor NF-kappa-B complex (Homo sapiens) (UniProt Q00653+P19838+Q04206); assay: Inhibition of LPS-induced NFkappaB activation in human LX-2 cells assessed as reduction in p65 phosphorylation preincubated for 2 hrs followed by LPS stimulation and measured after 2 hrs by Western blot analysis; format: cell-based; settings: dose 5-20 µM, time 4.0 hrs
RAW264.7 [6] = assay: Antiinflammatory activity in mouse RAW264.7 cells assessed as inhibition of LPS-induced alpha-SMA mRNA expression at 5 to 20 uM preincubated for 2 hrs followed by LPS stimulation and measured after 48 hrs by qRT-PCR analysis; format: functional, cell-based; settings: dose 5-20 µM, time 50.0 hrs
RAW264.7 [7] = assay: Antiinflammatory activity in mouse RAW264.7 cells assessed as inhibition of TGFbeta1-induced alpha-SMA expression at 5 to 20 uM preincubated for 2 hrs […] and measured after 48 hrs by Western blot analysis; format: functional, cell-based; settings: dose 5-20 µM, time 50.0 hrs
Mus musculus [8] = assay: In vivo inhibition of Smad3 phosphorylation in CCL4-induced C57BL/6J mouse hepatic fibrosis model at 15 to 30 mg/kg, po administered via gavage for 4 weeks starting from 5th week of CCL4 stimulation by Western blot analysis; format: functional, organism-based; settings: dose 15-30 mg/kg
RAW264.7 [9] = assay: Inhibition of LPS-induced NFkappaB transcriptional activity in mouse RAW264.7 cells at 5 uM preincubated for 2 hrs followed by LPS stimulation and measured after 6 hrs by luciferase reporter gene assay relative to control; format: cell-based; settings: time 8.0 hrs
Mus musculus [10] = assay: Antifibrotic activity against CCL4-induced C57BL/6J mouse hepatic fibrosis model assessed as reduction in necrosis of hepatocytes at 15 to 30 mg/kg, po administered via gavage for 4 weeks starting from 5th week of CCL4 stimulation by H and E staining based histopathological analysis; format: functional, organism-based; settings: dose 15-30 mg/kg
Mus musculus [11] = assay: Antifibrotic activity against CCL4-induced C57BL/6J mouse hepatic fibrosis model assessed as reduction in infiltration of inflammatory cells in liver at 15 to 30 mg/kg, po administered via gavage for 4 weeks starting from 5th week of CCL4 stimulation by H and E staining based histopathological analysis; format: functional, organism-based; settings: dose 15-30 mg/kg
RAW264.7 [12] = assay: Inhibition of LPS-induced NFkappaB transcriptional activity in mouse RAW264.7 cells at 10 uM preincubated for 2 hrs followed by LPS stimulation and measured after 6 hrs by luciferase reporter gene assay relative to control; format: cell-based; settings: time 8.0 hrs
Mus musculus [13] = assay: Antifibrotic activity against CCL4-induced C57BL/6J mouse hepatic fibrosis model assessed as reduction in rough surface of liver at 15 to 30 mg/kg, po administered via gavage for 4 weeks starting from 5th week of CCL4 stimulation; format: functional, organism-based; settings: dose 15-30 mg/kg
Mus musculus [14] = assay: In vivo inhibition of p38 phosphorylation in CCL4-induced C57BL/6J mouse hepatic fibrosis model at 15 to 30 mg/kg, po administered via gavage for 4 weeks starting from 5th week of CCL4 stimulation by Western blot analysis; format: functional, organism-based; settings: dose 15-30 mg/kg
Mus musculus [15] = assay: In vivo inhibition of ERK1/2 phosphorylation in BDL-induced C57BL/6J mouse hepatic fibrosis model at 15 to 30 mg/kg, po administered via gavage starting from 3 days post-BDL by Western blot analysis; format: functional, organism-based; settings: dose 15-30 mg/kg
Mus musculus [16] = assay: Antifibrotic activity against BDL-induced C57BL/6J mouse hepatic fibrosis model assessed as reduction in alphaSMA expression in liver at 15 to 30 mg/kg, po administered via gavage starting from 3 days post-BDL by immunohistochemical staining based assay; format: functional, organism-based; settings: dose 15-30 mg/kg
RAW264.7 [17] = assay: Antiinflammatory activity in mouse RAW264.7 cells assessed as inhibition of TGFbeta1-induced alpha-SMA mRNA expression at 5 to 20 uM preincubated for 2 hrs […] and measured after 48 hrs by qRT-PCR analysis; format: functional, cell-based; settings: dose 5-20 µM, time 50.0 hrs
Mus musculus [18] = assay: Antifibrotic activity against CCL4-induced C57BL/6J mouse hepatic fibrosis model assessed as reduction in collagen deposition in liver at 15 to 30 mg/kg, po administered via gavage for 4 weeks starting from 5th week of CCL4 stimulation by Sirius red and Masson's trichrome staining based assay; format: functional, organism-based; settings: dose 15-30 mg/kg
Mus musculus [19] = assay: Antifibrotic activity against BDL-induced C57BL/6J mouse hepatic fibrosis model assessed as reduction in alphaSMA mRNA expression in liver at 15 to 30 mg/kg, po administered via gavage starting from 3 days post-BDL by qRT-PCR analysis; format: functional, organism-based; settings: dose 15-30 mg/kg
RAW264.7 [20] = assay: Antiinflammatory activity in mouse RAW264.7 cells assessed as inhibition of LPS-induced alpha-SMA expression at 5 to 20 uM preincubated for 2 hrs followed by LPS stimulation and measured after 48 hrs by Western blot analysis; format: functional, cell-based; settings: dose 5-20 µM, time 50.0 hrs
RAW264.7 [21] = assay: Antiinflammatory activity in mouse RAW264.7 cells assessed as inhibition of LPS-induced collagen 1 mRNA expression at 5 to 20 uM preincubated for 2 hrs followed by LPS stimulation and measured after 48 hrs by qRT-PCR analysis; format: functional, cell-based; settings: dose 5-20 µM, time 50.0 hrs
[22] = biological target: Mothers against decapentaplegic homolog 2 (Homo sapiens) (UniProt Q15796); assay: Inhibition of TGFbeta1-induced Smad2 phosphorylation in human LX-2 cells preincubated for 2 hrs followed by […] stimulation and measured after 2 hrs by Western blot analysis; format: cell-based; settings: dose 5-20 µM, time 4.0 hrs
Mus musculus [23] = assay: Antifibrotic activity against CCL4-induced C57BL/6J mouse hepatic fibrosis model assessed as reduction in collagen 1 expression in liver at 15 to 30 mg/kg, po administered via gavage for 4 weeks starting from 5th week of CCL4 stimulation by qRT-PCR analysis; format: functional, organism-based; settings: dose 15-30 mg/kg
[24] = biological target: Mothers against decapentaplegic homolog 3 (Homo sapiens) (UniProt P84022); assay: Inhibition of TGFbeta1-induced Smad3 phosphorylation in human LX-2 cells preincubated for 2 hrs followed by […] stimulation and measured after 2 hrs by Western blot analysis; format: cell-based; settings: dose 5-20 µM, time 4.0 hrs
RAW264.7 [25] = assay: Antiinflammatory activity in mouse RAW264.7 cells assessed as inhibition of LPS-induced collagen 1 expression at 5 to 20 uM preincubated for 2 hrs followed by LPS stimulation and measured after 48 hrs by Western blot analysis; format: functional, cell-based; settings: dose 5-20 µM, time 50.0 hrs
RAW264.7 [26] = assay: Antiinflammatory activity in mouse RAW264.7 cells assessed as inhibition of TGFbeta1-induced collagen 1 expression at 5 to 20 uM preincubated for 2 hrs […] and measured after 48 hrs by Western blot analysis; format: functional, cell-based; settings: dose 5-20 µM, time 50.0 hrs
Mus musculus [27] = assay: In vivo inhibition of p38 phosphorylation in BDL-induced C57BL/6J mouse hepatic fibrosis model at 15 to 30 mg/kg, po administered via gavage starting from 3 days post-BDL by Western blot analysis; format: functional, organism-based; settings: dose 15-30 mg/kg

Mothers against decapentaplegic homolog 2 (Homo sapiens), sequence (Q15796 whole entry): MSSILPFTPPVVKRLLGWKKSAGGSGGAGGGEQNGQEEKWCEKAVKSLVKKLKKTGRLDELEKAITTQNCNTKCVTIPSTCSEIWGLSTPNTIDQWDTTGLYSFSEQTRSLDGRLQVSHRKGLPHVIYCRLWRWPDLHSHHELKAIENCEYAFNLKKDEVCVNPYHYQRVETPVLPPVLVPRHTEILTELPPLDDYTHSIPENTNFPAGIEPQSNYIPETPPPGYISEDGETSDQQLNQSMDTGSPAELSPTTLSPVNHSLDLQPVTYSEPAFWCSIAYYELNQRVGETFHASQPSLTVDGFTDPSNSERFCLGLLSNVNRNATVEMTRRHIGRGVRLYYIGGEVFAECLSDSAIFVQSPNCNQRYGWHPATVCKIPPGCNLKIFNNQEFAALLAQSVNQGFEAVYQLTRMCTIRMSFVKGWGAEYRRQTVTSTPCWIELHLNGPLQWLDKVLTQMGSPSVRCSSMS
Nuclear factor NF-kappa-B complex (Homo sapiens), sequence (P19838 whole entry, looked up): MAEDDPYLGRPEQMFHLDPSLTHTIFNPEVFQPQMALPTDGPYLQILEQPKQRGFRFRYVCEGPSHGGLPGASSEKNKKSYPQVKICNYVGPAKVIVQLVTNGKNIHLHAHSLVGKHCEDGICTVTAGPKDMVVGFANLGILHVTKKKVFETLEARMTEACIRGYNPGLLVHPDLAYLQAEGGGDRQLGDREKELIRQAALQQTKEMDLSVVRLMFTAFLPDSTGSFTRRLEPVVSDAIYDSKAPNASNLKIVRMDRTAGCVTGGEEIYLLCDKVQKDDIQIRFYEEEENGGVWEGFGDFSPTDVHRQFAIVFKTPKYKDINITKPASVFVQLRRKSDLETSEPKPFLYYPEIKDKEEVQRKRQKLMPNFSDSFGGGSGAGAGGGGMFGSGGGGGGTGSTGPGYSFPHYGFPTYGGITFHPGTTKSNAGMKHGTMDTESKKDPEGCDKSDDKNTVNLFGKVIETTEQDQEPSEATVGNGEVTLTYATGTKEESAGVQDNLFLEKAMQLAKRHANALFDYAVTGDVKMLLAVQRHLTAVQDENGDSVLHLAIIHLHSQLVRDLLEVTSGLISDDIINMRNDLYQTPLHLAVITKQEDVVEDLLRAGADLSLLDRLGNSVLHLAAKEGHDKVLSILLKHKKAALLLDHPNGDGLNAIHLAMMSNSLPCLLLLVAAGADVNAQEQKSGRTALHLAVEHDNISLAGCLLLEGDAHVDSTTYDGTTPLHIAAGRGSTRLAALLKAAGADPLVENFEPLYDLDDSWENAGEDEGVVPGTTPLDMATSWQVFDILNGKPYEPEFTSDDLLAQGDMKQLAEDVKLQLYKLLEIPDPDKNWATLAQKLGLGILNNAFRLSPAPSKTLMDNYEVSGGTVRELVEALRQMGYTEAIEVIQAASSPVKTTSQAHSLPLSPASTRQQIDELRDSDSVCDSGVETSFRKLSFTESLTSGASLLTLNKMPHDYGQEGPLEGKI
Nuclear factor NF-kappa-B complex (Homo sapiens), sequence (Q00653 whole entry, looked up): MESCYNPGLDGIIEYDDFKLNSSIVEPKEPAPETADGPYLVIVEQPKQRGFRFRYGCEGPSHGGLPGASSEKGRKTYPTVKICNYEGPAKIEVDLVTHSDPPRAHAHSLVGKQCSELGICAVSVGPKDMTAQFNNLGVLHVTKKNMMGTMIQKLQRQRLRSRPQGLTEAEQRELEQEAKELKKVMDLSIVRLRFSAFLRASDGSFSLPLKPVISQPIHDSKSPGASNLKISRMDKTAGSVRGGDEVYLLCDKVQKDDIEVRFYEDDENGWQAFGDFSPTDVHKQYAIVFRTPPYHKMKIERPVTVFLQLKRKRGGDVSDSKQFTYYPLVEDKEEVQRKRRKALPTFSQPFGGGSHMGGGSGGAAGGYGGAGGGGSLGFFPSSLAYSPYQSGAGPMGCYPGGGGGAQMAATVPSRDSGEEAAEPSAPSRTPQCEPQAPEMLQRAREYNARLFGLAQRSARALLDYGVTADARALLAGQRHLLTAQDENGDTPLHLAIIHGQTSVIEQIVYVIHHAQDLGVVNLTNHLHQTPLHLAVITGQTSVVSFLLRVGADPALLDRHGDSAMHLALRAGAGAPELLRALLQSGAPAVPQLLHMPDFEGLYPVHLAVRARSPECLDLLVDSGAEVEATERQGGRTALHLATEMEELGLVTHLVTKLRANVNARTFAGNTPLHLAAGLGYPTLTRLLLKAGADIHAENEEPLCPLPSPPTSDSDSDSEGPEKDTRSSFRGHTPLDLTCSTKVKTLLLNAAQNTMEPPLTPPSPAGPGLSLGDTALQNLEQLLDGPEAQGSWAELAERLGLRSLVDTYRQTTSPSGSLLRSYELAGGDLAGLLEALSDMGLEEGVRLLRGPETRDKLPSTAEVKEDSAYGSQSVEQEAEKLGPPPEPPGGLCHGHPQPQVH
Nuclear factor NF-kappa-B complex (Homo sapiens), sequence (Q04206 whole entry, looked up): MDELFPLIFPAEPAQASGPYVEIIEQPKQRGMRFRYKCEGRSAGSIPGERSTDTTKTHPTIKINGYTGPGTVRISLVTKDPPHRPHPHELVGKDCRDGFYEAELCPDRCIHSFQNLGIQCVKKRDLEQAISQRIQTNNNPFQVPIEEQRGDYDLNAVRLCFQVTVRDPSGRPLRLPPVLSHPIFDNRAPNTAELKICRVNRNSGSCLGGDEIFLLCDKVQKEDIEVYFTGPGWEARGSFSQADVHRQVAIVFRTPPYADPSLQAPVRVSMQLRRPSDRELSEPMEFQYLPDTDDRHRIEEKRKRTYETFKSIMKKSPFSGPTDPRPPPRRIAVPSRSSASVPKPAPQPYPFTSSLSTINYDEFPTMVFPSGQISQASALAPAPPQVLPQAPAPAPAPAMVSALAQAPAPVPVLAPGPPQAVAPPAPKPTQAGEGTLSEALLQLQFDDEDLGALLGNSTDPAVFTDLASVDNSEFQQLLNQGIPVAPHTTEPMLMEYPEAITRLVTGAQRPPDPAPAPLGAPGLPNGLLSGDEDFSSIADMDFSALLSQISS
Mothers against decapentaplegic homolog 3 (Homo sapiens), sequence (P84022 2-425 limits assumed): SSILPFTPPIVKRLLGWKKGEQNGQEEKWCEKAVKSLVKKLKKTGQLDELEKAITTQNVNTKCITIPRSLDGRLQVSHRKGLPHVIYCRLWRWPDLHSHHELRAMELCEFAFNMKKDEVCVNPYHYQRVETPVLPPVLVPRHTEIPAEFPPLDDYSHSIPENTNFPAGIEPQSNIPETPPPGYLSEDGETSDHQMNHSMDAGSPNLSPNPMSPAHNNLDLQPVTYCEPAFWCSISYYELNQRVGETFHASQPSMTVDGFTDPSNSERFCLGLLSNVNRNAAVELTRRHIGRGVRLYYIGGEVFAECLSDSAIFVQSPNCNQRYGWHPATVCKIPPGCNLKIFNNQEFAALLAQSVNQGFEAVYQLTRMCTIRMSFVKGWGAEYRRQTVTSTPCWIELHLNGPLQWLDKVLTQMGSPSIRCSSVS

SMILES: COC(=O)CCC[C@@H]1[C@H]2CCCN3CCC[C@H](CN1C(=O)C(C)c1ccc(-c4ccccc4)c(F)c1)[C@@H]23 (some centres not stated)
- Activity (Mus musculus [1]): Active
- IC50 at 48 h [2]: 38.2 µM
- inhibition (LX-2 [3]): inactive
- inhibition (LX-2 [4]): Dose-dependent-effect
- inhibition [5]: Dose-dependent-effect
- inhibition (RAW264.7 [6]): Active
- inhibition (RAW264.7 [7]): Active
- inhibition (Mus musculus [8]): Active
- fold change (FC) (RAW264.7 [9]): 0.86
- Activity (Mus musculus [10]): Active
- Activity (Mus musculus [11]): Active
- fold change (FC) (RAW264.7 [12]): 0.71
- Activity (Mus musculus [13]): Active; Significant Alleviation Observed
- inhibition (Mus musculus [14]): inactive
- inhibition (Mus musculus [15]): inactive
- Activity (Mus musculus [16]): Active
- inhibition (RAW264.7 [17]): Active
- Activity (Mus musculus [18]): Active; Dramatically Decreased The Collagen Deposition
- Activity (Mus musculus [19]): Active
- inhibition (RAW264.7 [20]): Active
- inhibition (RAW264.7 [21]): Active
- inhibition [22]: Dose-dependent-effect
- Activity (Mus musculus [23]): Active
- inhibition [24]: Dose-dependent-effect
- inhibition (RAW264.7 [25]): Active
- inhibition (RAW264.7 [26]): Active
- inhibition (Mus musculus [27]): inactive
